Reference: publication PMC10820640, “An Intravenous Pharmacokinetic Study of Cannabidiol Solutions in Piglets through the Application of a Validated Ultra-High-Pressure Liquid Chromatography Coupled to Tandem Mass Spectrometry Method for the Simultaneous Quantification of CBD and Its Carboxylated Metabolite in Plasma” (Pharmaceutics, 2024)
Where two headings read alike, the source gives them in different places.

Key:
[1] = parameters: method as in PMID 34400185; settings: reported in the literature; cited from earlier work
[2] = Intravenous pharmacokinetic study of CBD:HP-β-CD solution in piglets (UHPLC-MS/MS plasma quantification); type: in vivo, Large White piglets; parameters: A (macro constant): unit not given beside the values; γ (macro constant) / α (macro constant) / B (macro constant) / β (macro constant) / C (macro constant): unit not given here; settings: for AUC(0-t) / Cmax: piglet plasma, IV 0.3 mg/kg CBD, non-compartmental analysis, normalized to dose
Description: The in vivo study was performed within the PigForLife® (CER Group Facilities) GLP structure (Marloie, Belgium). The study protocols were approved by the Local Ethical Commission before starting the study and complied with the Belgian regulation as published in the «Royal Decree of 29 May 2013 on the protection of experimental animals, A.G.W. 30 November 2017».
Sterile and isotonic CBD:HP-β-CD 100 mM (1.2 mg CBD/mL) solutions were prepared. A HP-β-CD stock solution (200 mM) was prepared by dissolving 31.0 g of HP-β-CD up to 100 mL with milliQ water. CBD:HP-β-CD complexes were prepared by adding an excess of CBD (45 mg) powder to 5 mL of milliQ water and 5 mL of the HP-β-CD stock solution, added with 84 mg of NaCl. The suspensions were kept in a rotating water bath set at 37 °C for 12 h. The suspensions were finally filtered through a 0.2 µm PHENEX® PTFE filter in laminar flow insulator conditions. The osmolarity and the pH value of the solutions were determined using a Freezing Point Osmometer (Löser, Delta Labo, Avignon, France) and a pH meter (Seven Easy, Mettler Toledo, Zaventem, Belgium), respectively. The solutions were injected to three Large White piglets (male and female, between 8 and 10 kg) at a dose of 0.3 mg/kg, as detailed in Table 3.
The animals were born on site and used in good health. The animals were housed together in pens of about 40 m^2 and an enriched environment was provided. Natural temperature and light cycles were used in a straw litter. During storage, the animals were fed ad libitum with a balanced pellet diet and were not given any curative or prophylactic veterinary drugs or additives during the study period. Tap water was available ad libitum. The piglets were fasted overnight ([…]) before receiving the formulations. All piglets were clinically examined before the study and before sampling. Blood samples (2 mL in EDTA tubes) were taken at 5 min, 10 min, 20 min, 30 min 45 min, 60 min, 90 min, 2 h, 4 h and 8 h. Blood samples were stored at 4 °C and centrifuged at 2500× g for 10 min. Plasma samples were then frozen at −80 °C until their analysis.
Pharmacokinetic analyses were evaluated by using the software Phoenix WinNonlin 8.4 version (Certara, Princeton, NJ, USA). Cmax and AUClast were determined through a non-compartmental pharmacokinetic analysis using the linear trapezoidal linear interpolation calculation method. Obtained values were normalized do the dose administered. The volumes of distribution (V1 and Vss), clearance and macro (A, B, C, α, β, γ) and micro (k10, k12, k21, k13, k31) constants were determined assuming a 2- or 3-compartment model. The model offering the best compromise between fitting and the number of parameters was selected based on an F test approach.

[3] = parameters: method as in PMID 35895770; settings: horses, IV CBD in DMSO 0.1 mg/kg; cited from earlier work
[4] = parameters: method as in PMID 30534073; settings: humans, cited from earlier work
[5] = parameters: method as in PMID 31173966; settings: mice, CBD emulsion IV 10 mg/kg; cited from earlier work
[6] = both sexes, Large White, pig, n = 3
[7] = IV-bolus three-compartment model, n = 2
[8] = IV-bolus three-compartment model, n = 3
[9] = IV-bolus two-compartment model, n = 2
[10] = IV-bolus two-compartment model, n = 3
[11] = piglets, IV, two-compartment model

Structure (SMILES): C=C(C)C1CCC(C(=O)O)=CC1c1c(O)cc(CCCCC)cc1O (centres unmarked) [7-COOH-CBD, 7-COOH-cannabidiol]
- metabolite plasmatic concentration relative to that of CBD [1]: 40 fold
- AUC(0-t) [2, 6]: 3930 ± 572 ng·h/mL
- Cmax [2, 6]: 610 ± 169 ng/mL
- earliest time metabolite concentrations were observed ([2]; piglet plasma after IV CBD 0.3 mg/kg, first sampling point): 5 min

Structure (SMILES): C=C(C)[C@@H]1CCC(C)=C[C@H]1c1c(O)cc(CCCCC)cc1O [CBD, Cannabidiol]
- A (macro constant) [2, 7]: 638.52 ± 60.91
- B (macro constant) [2, 7]: 330.39 ± 41.34
- C (macro constant) [2, 7]: 17.71 ± 15.74
- α (macro constant) [2, 7]: 12.28 ± 7.90
- β (macro constant) [2, 7]: 0.80 ± 0.19
- γ (macro constant) [2, 7]: 0.09 ± 0.12
- A (macro constant) [2, 8]: 640.14 ± 43.16
- C (macro constant) [2, 8]: 10.56 ± 6.33
- β (macro constant) [2, 8]: 0.70 ± 0.21
- γ (macro constant) [2, 8]: 316.02 ± 38.40
- A (macro constant) [2, 9]: 500.89 ± 129.30
- B (macro constant) [2, 9]: 133.91 ± 105.05
- α (macro constant) [2, 9]: 2.75 ± 2.18
- β (macro constant) [2, 9]: 0.33 ± 0.10
- A (macro constant) [2, 10]: 542.53 ± 116.45
- B (macro constant) [2, 10]: 168.95 ± 95.92
- α (macro constant) [2, 10]: 3.71 ± 2.26
- β (macro constant) [2, 10]: 0.34 ± 0.07
- clearance ([2]; both sexes, Large White, pig, plasma, 0.3 mg/kg, piglets, IV, two-compartment model, read-out: Cl (clearance) (converted)): 25.2 mL/min
- Vd ([2]; both sexes, Large White, pig, plasma, 0.3 mg/kg, piglets, IV, two-compartment model, read-out: Vss (volume at steady state)): 3.26 ± 0.287 L
- AUC(0-t) [2, 6]: 639 ± 79.2 ng·h/mL
- Cmax [2, 6]: 600 ± 75.8 ng/mL
- half-life ([2]; both sexes, Large White, pig, piglets, IV 0.3 mg/kg CBD:HP-β-CD solution, experimental plasma profile, read-out: apparent distribution half-life (converted)): 0.25 h
- elimination half-life ([2]; piglets, IV 0.3 mg/kg CBD:HP-β-CD solution, experimental plasma profile): two
- Capacity (k12/k21) [2, 11]: 1.5
- Depth (k10/k12) [2, 11]: 0.58
- V1 (volume of the central compartment) [2, 11]: 1512.43 ± 538.41 mL
- fc (ratio of quantity in the central compartment over total quantity, β/k1-0) [2, 11]: 0.33
- k1-0 (micro constant) [2, 11]: 1.04 ± 0.20 h⁻¹
- k1-2 (micro constant) [2, 11]: 1.80 ± 1.43 h⁻¹
- k2-1 (micro constant) [2, 11]: 1.20 ± 0.74 h⁻¹
- half-life [3]: 3.15 h
- half-life of elimination (t1/2) ([4]; after chronic oral administration): several days
- clearance ([4]; following an intravenous injection): 74.4 L/h
- half-life of elimination (t1/2) ([4]; pulmonary or single oral administration): around one or two
- clearance [5]: 56.7 mL/min/kg
- half-life [5]: 3.9 h
